Measurements published in US20210177880A1, “METHODS AND COMPOSITIONS FOR TREATING ACUTE MYELOID LEUKEMIA” (President and Fellows of Harvard College, priority 2017, published 2021).

Columns and labels:
[1] = Tolerability of daily DON injections in mice carrying AML; type: in vivo, mouse; details: daily injections extended for more than 5 days
Description: (§1) To confirm that glutamine metabolism plays a functional role in protecting AML cells from chemotherapy, human AML cells (THP1) were treated in culture with iCT in combination with 6-diazo-5-oxo-L-norleucine (DON), a glutamine analog and antagonist that inhibits all glutamine-dependent enzymes (FIG. 5C). […] Mice carrying AML were then treated in combination with DON at different regimens (FIG. 5D).

[2] = system: MLL-AF9 AML cells; experiment: Survival of AML-bearing mice treated with iCT with or without DON; type: in vivo, mouse
Description: Arrows show the range where synergism occurs. […] FIG. 5C provides the chemical structure of glutamine and 6-diazo-5-oxo-L-norleucine (DON). FIGS. 5D-5E show survival of AML-bearing mice treated with iCT (days 7-11) with or without short term 6-diazo-5-oxo-L-norleucine (DON; 0.3 mg/kg), showing the treatment schedule (FIG. 5D) and Kaplan-Meier survival curves (FIG. 5E). iCT+DON: both given at same time; iCT+DON^+3: DON started 3 days after first dose of iCT. […]
To test this hypothesis, a mouse model was used in which cells express MLLAF9, driving leukemia development, luciferase, and GFP. The mouse model allows real-time monitoring of leukemic burden through bioluminescence imaging, and therefore identification of the moment of maximal response to iCT. Bone marrow cells derived from terminally ill primary mice were intravenously transplanted into secondary wildtype recipients, leading to the development of a very aggressive disease that can be monitored in real time since only AML cells express luciferase and GFP. Mice were treated with a chemotherapy regimen that closely mimics the one used in patients (cytarabine for 5 days and doxorubicin for the first 3 days) or vehicle, and followed disease progression using bioluminescence imaging (FIG. 6A). It was discovered that the amount of maximal response occurs 3-4 days after the last dose of chemotherapy (FIG. 6B). This means that at this moment, after the selection pressure of chemotherapy, massive neighboring cell death, and possibly other stress factors such as niche alteration, certain cells have adapted and are now started to grow again.
as §1

[3] = system: THP1 human AML cell line; experiment: Viability of human AML cells (THP1) treated in culture with iCT in combination with DON; type: cell-based; details: different doses of iCT (cytarabine+doxorubicin) in combination with DON, 72 h in vitro, FIG. 5A
Description: Arrows show the range where synergism occurs. […] FIG. 5C provides the chemical structure of glutamine and 6-diazo-5-oxo-L-norleucine (DON). FIGS. 5D-5E show survival of AML-bearing mice treated with iCT (days 7-11) with or without short term 6-diazo-5-oxo-L-norleucine (DON; 0.3 mg/kg), showing the treatment schedule (FIG. 5D) and Kaplan-Meier survival curves (FIG. 5E). iCT+DON: both given at same time; iCT+DON^+3: DON started 3 days after first dose of iCT. FIGS. 5F-5G show survival of AML-bearing mice treated with iCT (days 7-11) with or without continuous DON ([…]), showing the treatment schedule (FIG. 5F) and Kaplan-Meier survival curves (FIG. 5G). iCT+DON^post: DON started after last dose of iCT.
as §1

[N-]=[N+]=CC(=O)CC[C@H](N)C(=O)O [DON, 6-diazo-5-oxo-L-norleucine]
lethality of daily DON injections [1]: proved lethal
survival of AML-bearing mice, DON given together with iCT, versus iCT alone ([2]; DON 0.3 mg/kg daily for 5 days at the same time as iCT (cytarabine 100 mg/kg 5 days + doxorubicin 3 mg/kg first 3 days), FIG. 5B/5E): did not extend survival
survival of AML-bearing mice, DON short treatment ([2]; DON daily for 5 days at 0.3 mg/kg, FIG. 5B/5E): did not have much effect
interaction between iCT and DON treatment on survival ([2]; DON every other day at 0.3 mg/kg, extended treatment after iCT, FIG. 5G): clear synergism
survival of AML-bearing mice, DON every other day after iCT, versus iCT alone ([2]; DON every other day at 0.3 mg/kg, started after last dose of iCT (iCT+DONpost), p=0.0019, FIG. 5F/5G): increased substantially
survival of AML-bearing mice, DON delayed 3 days after first dose of iCT ([2]; iCT+DON+3: short-term DON 0.3 mg/kg started 3 days after first dose of iCT, spanning the moment of maximal response, FIG. 5E): a clear survival benefit was achieved
interaction of iCT and DON on viability of THP1 cells [3]: synergy at several doses
